Columns and labels:
[1] = system: subintestinal vessels (SIVs) of wild type zebrafish; assay: Ectopic subintestinal vessel (SIV) sprouting in wild type zebrafish (AP staining / confocal imaging); assay type: in vivo; conditions: for ectopic SIV branching: 3.5 dpf wild type larva treated with 10 μM at 2.5 dpf, vs DMSO
Experimental: (§1) FIG. 6 illustrates quantitation of SW vascular plexus width and ectopic ventral SW sprout number and length. The maximal width of the normal SIV plexus is measured from supraintestinal artery to subintestinal vein (1). The number of ectopic sprouts greater than 1 μm in length projecting ventrally from the subintestinal vein is counted, and the total length of all of these sprouts (2) is measured. […] Scale bar 30 μm.
Zebrafish Husbandry and Injection: Zebrafish were raised by standard methods. The Tg(fli1:EGFP)^y1, Tg(fli1:nEGFP)^y7 [Yaniv et al., Nat Med 12, 711-716 (2006)] and Tg(flt1:YFP)^hu4624 [Hogan et al., Nat Genet 41, 396-398 (2009)] lines were previously derived. MOs and DNA were injected as further described below.
(§2) Microangiography and Cell Transplants: 10 μM Atorvastatin (Sigma), 1 ug/μl DiI-LDL (Invitrogen), 6 μg/ml C6 in 0.5% BSA Fatty Acid Free (Sigma A8806) and Human Apolipoprotein B-100 (A50220H Meridian Life Science) in 0.5% BSA Fatty Acid Free (Sigma A8806) microangiography was performed at 2.5 dpf as described [Isogai et al., Dev Biol 230, 278-301 (2001)]. HEK293 cells co-transfected with Huh7MTP+apoB34 (see herein below) or un-transfected control cells were transplanted into the perivitelline space of one side of the yolk of 2.5 dpf stl; Tg(fli1:EGFP)^y1 mutant or WT embryos, ventral to the developing SIVs [Nicoll et al., J Cell Mol Med (2008)].
(§3) In Situ Hybridization, Oil Red 0, and Alkaline Phosphatase (AP) Staining: Embryos were fixed overnight in 4% PFA and processed for AP staining [Habeck et al., Curr Biol 12, 1405-1412 (2002)], Oil Red 0 staining [Schlegel et al., Biochemistry 45, 15179-15187 (2006)], or whole-mount in situ hybridization using antisense mRNA probes for vegfr1, vegfr2, vegfr3 and VeCad as described [Pham et al., Dev Biol 303, 772-783 (2007)].
Microscopy and Imaging: Zebrafish embryos used for imaging or in situ hybridization were treated with 0.00 3% phenylthiourea from 8hpf to inhibit melanin pigment formation. […]

[2] = system: trunk ISVs; assay: Trunk intersegmental vessel (ISV) phenotype of morpholino-injected zebrafish; assay type: in vivo; conditions: 3.5 dpf MO-injected zebrafish
Experimental: Microscopy and Imaging: Zebrafish embryos used for imaging or in situ hybridization were treated with 0.00 3% phenylthiourea from 8hpf to inhibit melanin pigment formation. Confocal imaging was performed using a FVIOOO Olympus imaging system or Zeiss LSM780 upright confocal microscope equipped with ×20 NA 1.0 lens.
Injection of Zebrafish Embryos: The mtp [Schlegel, A. & Stainier, D. Y. Biochemistry 45, 15179-15187 (2006)], apoCII [Pickart, M. A., et al. PLoS One 1, e104 (2006);
MOs (Gene-Tools) were resuspended and injected at concentrations from 5-20 ng/embryo.

[3] = system: stl mutants; assay: Rescue of ectopic SIV sprouts in stl mutant zebrafish; assay type: in vivo; conditions: for excess angiogenesis / ectopic branching phenotype of stl mutants: intravascular supply at 2.5 dpf
Experimental: as §1
Cloning of mtp and Rescue of the Mutant Phenotype: The full-length coding sequence of zebrafish mtp was amplified by PCR from WT cDNA and cloned into a pCSDest vector [Villefranc et al., Dev Dyn 236, 3077-3087 (2007)] as further described herein below. mtp mRNA was synthesized with mMessage mMachine kit (Ambion) and injected at a concentration of 232 pg per embryo into the 1 cell stage cytoplasm or into the YSL at dome stage (approximately at 4 hpf).
as §2, §3
pCS2vegfrlCDS mRNA ([…]) and pCS2mtpCDSmRNA ([…]) were injected at the 1 cell stage or at dome stage, respectively.
(§4) Fatty Acids Feeding of Zebrafish Embryos: Dechorionized 24 hours post fertilization (hpf) embryos were incubated with 6 μg/ml short, intermediate or long chain fatty acid in a solution containing 0.1% BSA Fatty Acid Free (Sigma A8806) for 48 hours. Embryos were then fixed overnight in 4% PFA and processed for AP staining.

[4] = system: WT zebrafish embryos; assay: Survival of WT zebrafish embryos treated with oleic acid; assay type: in vivo; conditions: increasing concentrations
Experimental: FIG. 11 is a survival curve of WT zebrafish embryos treated with increasing concentrations of oleic acid. Only embryos treated with less than 6 μg/ml oleic acid survived until 6 dpf.

[5] = system: apoCII morphants; assay: Fatty acid feeding of apoCII morphants, trunk ISV phenotype; assay type: in vivo, zebrafish; conditions: medium supplemented with 6 μg/ml (C6)
Experimental: as §4

[6] = stl mutants injected intravascularly at 2.5 dpf, vs not injected

vegfr1 MO: vegfr1 ATG blocking morpholino, SEQ ID NO: 1, 5′-ATATCGAACATTCTCTTGGTCTTGC-3′ (all phosphorodiamidate morpholino (PMO))
ectopic SIV sprouts after morpholino injection ([1]; 3.5 dpf Tg(fli-EGFP)y1 zebrafish, MO-injected): ectopic SIV sprouts
trunk ISV phenotype [2]: ectopic branching and sprouting

delipidated form of apoB-100: Human Apolipoprotein B-100 (A50220H Meridian Life Science)
excess angiogenesis / ectopic branching phenotype of stl mutants [3]: efficiently reverted the excess angiogenesis phenotype
average number of ectopic SIV segments [3, 6]: significantly reduced
average total length of ectopic SIV segments [3, 6]: significantly reduced

CCCCCCCC/C=C\CCCCCCCC(=O)O [oleic acid]
oleic acid concentration at which embryos survived until 6 dpf [4]: less than 6 μg/ml

CCCCCC(=O)O [scFA]
ectopic vessels phenotype of stl mutants ([3]; 3.5 dpf stl mutants, 6 μg/ml fatty acid in embryo medium): did not inhibit the ectopic vessels phenotype
excess angiogenesis / ectopic branching phenotype of stl mutants [3]: did not rescue the ectopic branching phenotype
trunk ISV phenotype of apoCII morphants [5]: No phenotypic changes were detected

CC(C)c1c(C(=O)Nc2ccccc2)c(-c2ccccc2)c(-c2ccc(F)cc2)n1CC[C@@H](O)C[C@@H](O)CC(=O)O [atorvastatin, Atorvastatin]
ectopic SIV branching [1]: efficiently phenocopied the excess angiogenesis phenotype of stl mutants
ectopic SIV branching ([1]; listed as Atorvastatin): results in ectopic SW branching
